The source of these data is patent US20230129935A1, “SYSTEM, PRODUCT AND METHOD FOR MAINTAINING THE VAGINAL MICROBIOME” (VAGINAL BIOME SCIENCE, INC., priority 2021, published 2023).

One series concerns HIV. Put plainly: Killing of HIV and other pathogens by lubricant acidified with lactic acid. The note with it: vaginal lubricant including substantially racemic lactic acid, matched to vaginal acidity.
The subject of series [1] is herpes simplex virus (HSV-2). As to conditions: after a single exposure; cited from earlier work.

As for `CC(O)C(=O)O` (racemic) [lactic acid], the “killing of HIV and many other pathogens” value with HIV is “kills HIV and many other pathogens”.

In the case of “polyethylene glycol [polyethylene glycol (PEG-8)]”, the “susceptibility to herpes simplex virus (HSV-2)” value in series [1] is “markedly increased susceptibility”.
